Data taken from patent US8114406B2, “Peptides and their utility in modulation of behavior of cells expressing α3β1 integrins” (The United States of America as represented by the …, priority 1999, dated 2012).
Read-outs that look alike come from different tables or passages of the source. Each block holds one substance with its values, some of them ahead of it. Where no end group is shown, it is not given here.

Key:
[1] = test system: chick chorioallantoic membrane (CAM) angiogenesis; assay: Chick chorioallantoic membrane (CAM) angiogenesis assay; format: in vivo, chicken; settings: for Angiogenic response (% inhibition): relative to control gels, mean ± SD; for activity in the CAM assay: in vivo
Experimental: Fertilized Leghorn chicken eggs were obtained from Ramona Duck farm (Westminster, Calif.). At day 3 of development, the embryos were placed on 100 mm petri dishes. Assays were performed as previously described (Iruela-Arispe et al., 1999). […] Peptides were filtered on Centricon P100 prior to their analysis on the CAM assays to eliminate traces of endotoxin. Pellets were applied to the outer ⅓ of the CAM, and the assay was performed for 24 h. Detection of capillary growth was done by injection of FITC-dextran in the bloodstream and observation of the pellets under a fluorescent inverted microscope. Positive controls (growth factors and vehicle), as well as negative controls (vehicle alone) were placed in the same CAM and used as reference of 100% stimulation or baseline inhibition (0%), and response to the peptides was determined according to these internal controls. Assays were performed in duplicate in each CAM and in four independent CAMs (total of 8 pellets).

BAE cells [2] = settings: added in solution
Experimental: (§5) Briefly, 100 μl of a 5×10^4 cell/ml suspension of BAE cells were seeded in triplicate into 96 well tissue culture plate in DMEM medium containing 1% FCS, 10 ng/ml of FGF2 and peptides at 1-40 μM concentrations. Cells were incubated for 72 h, and proliferation was measured using the Celltiter tetrazolium assay (Promega). […] Proliferation was determined at 72 h, and is presented as a percent of the control, mean±S.D., n=3 for experimental points and n=6 for control. […] FIG. 19E: HDME cell proliferation in MCDB growth medium with 5% FCS was determined in the presence of 10 ng/ml FGF2 and the indicated concentrations of TSP1 added in the medium (Δ) or immobilized on the substrate (●) or in wells coated with the indicated concentrations of peptide 678 (●).
(§6) Cell proliferation was measured using the Cell-Titer colorimetric assay (Promega) as previously described (Vogel et al., 1993). A 100 μl volume of BAE cell suspension at 50,000 cells/ml in DMEM containing 1% FBS and supplemented with 10 ng/ml FGF2 was plated in triplicate in 96 well tissue culture plates either in the presence of peptides in solution or in wells that were pre-coated with 100 μl of the peptides at 40° C. overnight and aspirated just before adding cells. Cells were grown for 72 hours at 37° C. in a humidified incubator with 5% CO2. […] HDME cell proliferation was measured in MCDB growth medium without heparin, VEGF, or FGF2.

[3] = test system: MDA-MB-435 breast carcinoma cells; assay: Inhibition of MDA-MB-435 cell adhesion to immobilized peptide 678 (microscopic adhesion assay); format: cell-based, human
Experimental: (§1) Adhesion assays of cells other than small cell lung carcinoma (SCLC)-Adhesion was measured on polystyrene or glass substrates coated with peptides or proteins as previously described (Guo et al., 1992). Peptides dissolved in PBS at 0.4 to 50 μM were incubated in polystyrene microliter plate wells overnight at 4° C. The wells were washed 3 times with distilled water. Adsorbed peptide was quantified using the BCA assay (Pierce Chemical) measuring absorbance at 570 and 630 nm as described by the supplier's protocol. The assay for adsorption was calibrated using purified peptide in solution as a standard. After blocking with 1% BSA in Dulbecco's PBS, adhesion assays were performed by adding cells suspended in DMEM (BAE cells) or medium 199 (human cells) containing 1 mg/ml BSA. Cell attachment and spreading was quantified microscopically.

OH1 SCLC cells = format: cell-based, human; settings: soluble
Experimental: Net, proliferation was determined by the CellTiter assay (Promega) and is presented as mean±SD, n=3. […] The cells were fixed and photographed using Nomarski optics. Bar=100 μm. […] Panel E: α3β1 Integrin ligands cooperate with EGF to inhibit OH1 cell proliferation. […] Net proliferation is presented as a percent of the -EGF control (mean±SD, n=3 for treated groups and n=6 for control groups).
Proteins and peptides were immobilized on Nunc Maxisorp 96 well plates by overnight incubation with the proteins or peptides dissolved in 50 μl of sterile Dulbecco's PBS. The supernatant fluid was removed, and the wells were incubated for 30 min. in DPBS containing 1% BSA. OH1 cells (1×10^4/well) were added in RPMI containing 15% FCS and incubated for 72 h at 37° in 5% CO2. For assessing inhibition by soluble proteins or peptides, OH1 cells were grown in suspension in Nunclon 96 well tissue culture plates using the same medium.

BAE cells [4] = test system: BAE cells
Experimental: Direct adhesion of BAE cells to the adsorbed peptides or uncoated substrate (control) are presented as mean±SD, n=3. […] Two flasks of BAE cells were grown to confluence. One flask was harvested and replated in fresh medium at 25% confluency. Fresh medium was added at the same time to the second flask. After 16 h, cells from both flasks were dissociated using EDTA and adhesion was measured on substrates coated with 40 μg/ml TSP1, 10 μg/ml vitronectin, 20 μg/ml plasma fibronectin, or 5 μg/ml type I collagen. The percent spread cells after 60 min is presented as mean±SD, n=3 for a representative experiment.

MDA-MB-435 cells = assay: MDA-MB-435 cell chemotaxis in modified Boyden chambers; format: cell-based, human
Experimental: FIGS. 10A and 10B display the measurement of MDA-MB-435 cell chemotaxis. Panel A: Dose-dependence for stimulation of MDA-MB-435 cell motility by peptide 678 added to the lower well of a modified Boyden chamber. Cells migrated to the lower surface of an 8 μm pore polycarbonate filter were quantified microscopically after 7 h, mean±SD, n=3 for a representative experiment. […] Chemotaxis of untreated cells (striped bars) or cells treated with 10 nM IGF1 in the upper chamber (solid bars) was determined after 7 h and is presented as mean±S.D., n=3.

BAE cells [5] = assay: Scratch wound repair of BAE cells; format: cell-based, bovine; settings: cells arrested using 5-fluorouracil; 24 h
Experimental: BAE cells were seeded at a density of 2×10^5 cells/well of 6 well tissue culture plates in complete growth medium supplemented with 10% FBS. After the cells formed a confluent cobblestone, cells were arrested using 10 μg/ml 5-fluorouracil for 48 h. Scrape wounds of 2 mm, width were made in the wells, and the cells were further incubated with medium containing 10% FBS, 10 μg/ml 5 fluorouracil and peptides 678, 709, or 690. Measurements of the distance between the wound margins were taken at 0 and 24 h, and the net migration is expressed as mean±SEM for triplicates.
The in vitro wound healing assay used was a slight modification of that described by Joyce et al. (Joyce et al., 1989). A confluent monolayer of BAE cells pretreated with 10 μg/ml 5-fluorouracil for […] were used in this assay. […] Mitosis of the BAE cells in the monolayers was inhibited by addition of 5-fluorouracil, so that the rate of wound closure was due solely to the migration of cells into the wound sites. The distances between the wound margins were measured as soon as the wound was made and 24 hours later using a grid incorporated into the eye piece of the microscope. All data represent the results obtained from three independent scratch wounds for each peptide tested.

N417 SCLC cells = assay: SCLC cell adhesion to extracellular matrix proteins, N417; format: cell-based, human
Experimental: (§2) For adhesion assays of SCLC, these cells were washed once with RPMI 1640 and centrifuged at 400×g for 3 min. The pellet was suspended in 2.5 mM EDTA in PBS, pH 7.4 and incubated for 10 min at 37° C. After trituration three times and centrifugation, the cells were resuspended in RPMI 1640 containing 0.1% BSA (Sigma Co. St Louis, Mo.).
(§3) Adhesion of SCLC cells to extracellular matrix proteins. Extracellular matrix proteins or peptides in Dulbecco's PBS were adsorbed onto polystyrene by incubating overnight at 4° C. […] The supernatant fluid was removed, and the dishes were incubated with Tris-gelatin (ICN) (50 mM Tris-HCl, 110 mM NaCl, 5 mM CaCl2, 0.1 mM phenylmethylsulfonyl fluoride, 0.2% gelatin and 0.02% NaN3, pH 7.8) or Dulbeccos PBS with 1% BSA, as indicated, for 30 min to minimize nonspecific adhesion. The disks were washed twice with cold PBS, pH 7.2 and overlayed with dissociated SCLC cells prepared as described above at a density of 2.5×10^5/cm^2.
(§4) For inhibition studies with SCLC cells, inhibitors or antibodies were added and incubated with SCLC cells at the indicated concentrations. After incubation for 60-90 min at 37° C., the disks were washed by dipping six times in PBS, pH 7.2, fixed with 1% glutaraldehyde in PBS, pH 7.2, and stained with Diff-Quik. Attached cells were counted microscopically.

H69 SCLC cells = assay: SCLC cell adhesion to extracellular matrix proteins, H69; format: cell-based, human
Experimental: as §2, §3, §4

HUVEC = HUVEC spreading on coated substrates; format: cell-based, human; settings: data not shown
Experimental: FIGS. 14A, 14B and 14C display α3β1 and αvβ3 integrin-mediated spreading of endothelial cells on thrombospondin-1. […] Results are expressed as percent of the response for untreated cells, mean±S.D., n=3.
as §1

HDME cells [6] = assay: HDME cell spreading on coated substrates; format: cell-based, human
Experimental: Spreading was determined microscopically for cells with no additions, in the presence of 10 μM peptide 678, or in the presence of 30 μM of the control peptide 690. Results are presented as mean±SD, n=3. […] The percent spread cells was determined at 60 min.
as §1

HDME cells [7] = assay: HDME cell proliferation; format: cell-based, human
Experimental: as §5, §6

H345 SCLC cells = assay: SCLC cell adhesion to extracellular matrix proteins, H345; format: cell-based, human
Experimental: as §2, §3, §4

[8] = Table 3, 5 μM peptide 678, read-out: IC50 (μM), inhibition of MDA-MB-435 cell adhesion to immobilized peptide 678
[9] = microscopic adhesion assay, polystyrene coated with 5 μM peptide 678, peptides in solution, read-out: Inhibition of peptide 678 (IC50)
[10] = cells harvested from a confluent monolayer

IC50 [3, 8]: > 300 µM | IC50 [3, 9]: > 300 µM
Substance: FQGVLQAVRFVF [Peptide 686]
Angiogenic response (% inhibition) ([1]; 5 μM peptide): 3 ± 4% | Angiogenic response (% inhibition) ([1]; 10 μM peptide): 4 ± 6% | Angiogenic response (% inhibition) ([1]; 20 μM peptide): 15 ± 7% | activity in the CAM assay [1]: reduced activity | inhibition of BAE cell proliferation (BAE cells [2]): inactive | inhibition of OH1 cell proliferation (OH1 SCLC cells): inactive

IC50 [3, 8]: > 300 µM | IC50 [3, 9]: > 300 µM
Substance: FQGVLQNVAFVF [Peptide 690]
inhibition of density-dependent BAE spreading on intact TSP1 and the TSP1 peptide (BAE cells [4]; peptide added in solution): not significantly inhibited | endothelial cell attachment on immobilized peptide (BAE cells [4]; peptides adsorbed at 10 μM (FIG. 11A)): not | Angiogenic response (% inhibition) ([1]; 5 μM peptide): 3 ± 3% | Angiogenic response (% inhibition) ([1]; 10 μM peptide): 5 ± 3% | Angiogenic response (% inhibition) ([1]; 20 μM peptide): 2 ± 5% | activity in the CAM assay [1]: inactive | stimulation of chemotaxis (MDA-MB-435 cells): inactive | inhibition of BAE cell migration into the wound (BAE cells [5]): did not inhibit

Substance: TSP1: calcium replete thrombospondin-1 purified from human platelets
percent spread BAE cells on substrate (BAE cells [4]; [10]): less than 10% | SCLC cell adhesion (N417 SCLC cells; 6.2 μg/ml): 15 ± 2 cells/mm2 | SCLC cell adhesion (N417 SCLC cells; 12.5 μg/ml): 30 ± 4 cells/mm2 | SCLC cell adhesion (N417 SCLC cells; 25 μg/ml): 48 ± 4 cells/mm2 | SCLC cell adhesion (N417 SCLC cells; 50 μg/ml): 55 ± 10 cells/mm2 | SCLC cell adhesion (H69 SCLC cells; 12.5 μg/ml): 46 ± 8 cells/mm2 | SCLC cell adhesion (H69 SCLC cells; 25 μg/ml): 94 ± 6 cells/mm2 | SCLC cell adhesion (H69 SCLC cells; 50 μg/ml): 110 ± 14 cells/mm2 | SCLC cell adhesion (H69 SCLC cells; substrate coated at 6.2 μg/ml, mean ± S.D., n = 3): 6 ± 1 cells/mm2 | percent spread HUVEC on immobilized substrate (HUVEC; confluent cells): 41±5% | percent spread HUVEC on immobilized substrate (HUVEC; sparse cultures): 46±7% | percent spread HDME cells on immobilized substrate (HDME cells [6]; cells from sparse culture): 29% | percent spread HDME cells on immobilized substrate (HDME cells [6]; [10]): 6% | HDME cell proliferation after plating on immobilized substance (HDME cells [7]): enhancement | SCLC cell adhesion (H345 SCLC cells; 6.2 μg/ml): 1 ± 1 cells/mm2 | SCLC cell adhesion (H345 SCLC cells; 12.5 μg/ml): 7 ± 1 cells/mm2 | SCLC cell adhesion (H345 SCLC cells; 25 μg/ml): 124 ± 17 cells/mm2 | SCLC cell adhesion (H345 SCLC cells; 50 μg/ml): 165 ± 6 cells/mm2

Substance: ri-FQGVLQNVRFVF [Peptide 709]
Angiogenic response (% inhibition) ([1]; 5 μM peptide): 5 ± 4% | Angiogenic response (% inhibition) ([1]; 10 μM peptide): 25 ± 13% | Angiogenic response (% inhibition) ([1]; 20 μM peptide): 39 ± 13% | activity in the CAM assay [1]: enhanced activity | inhibition of BAE cell migration into the wound (BAE cells [5]): dose-dependent inhibitor
